Assay results published in the NIST ThermoML archive (doi:10.1021/je0603325).
Numbers after ± are expanded uncertainties.

Tests used:
[1] = xn = mol fraction of the nth substance listed; conditions: 101 kPa, Liquid, x2 = 0
[2] = 101 kPa, Liquid
[3] = molar heat capacity at constant pressure; conditions: 101 kPa, Liquid, Small sample (50 mg) DSC

CCCCCCC [heptane] + BrCCBr
[1]
Conditions	mass density [kg/m3]
293.15 K	683.82 ± 0.63
298.15 K	679.59 ± 0.63
303.15 K	675.31 ± 0.64
308.15 K	671.02 ± 0.65
313.15 K	666.68 ± 0.65

CCCCCCC [heptane]
[2]
Conditions	mass density [kg/m3]
293.15 K	683.82 ± 0.63
298.15 K	679.59 ± 0.63
303.15 K	675.31 ± 0.64
308.15 K	671.02 ± 0.65
313.15 K	666.68 ± 0.65

BrCCBr [1,2-dibromoethane]
Conditions	mass density [kg/m3]	molar heat capacity at constant pressure [J/K/mol]	speed of sound [m/s]
[2], 292.84 K	–	–	1007.5 ± 2.4
[2], 293.15 K	2178.77 ± 2.9	–	–
[2], 298.15 K	2168.41 ± 2.9	–	–
[2], 299.17 K	–	–	991.14 ± 2.4
[2], 303.15 K	2157.94 ± 2.9	–	–
[2], 303.37 K	–	–	980.18 ± 2.4
[2], 308.15 K	2147.47 ± 2.8	–	–
[2], 308.75 K	–	–	966.56 ± 2.4
[2], 313.15 K	2136.96 ± 2.8	–	–
[2], 314.45 K	–	–	952 ± 2.3
[3], 293.15 K	–	136.87 ± 2.1	–
[3], 294.15 K	–	136.9 ± 2.1	–
[3], 295.15 K	–	136.95 ± 2.1	–
[3], 296.15 K	–	136.99 ± 2.1	–
[3], 297.15 K	–	137.02 ± 2.1	–
[3], 298.15 K	–	137.04 ± 2.1	–
[3], 299.15 K	–	137.09 ± 2.1	–
[3], 300.15 K	–	137.11 ± 2.1	–
[3], 301.15 K	–	137.15 ± 2.1	–
[3], 302.15 K	–	137.2 ± 2.1	–
[3], 303.15 K	–	137.25 ± 2.1	–
[3], 304.15 K	–	137.29 ± 2.1	–
[3], 305.15 K	–	137.32 ± 2.1	–
[3], 306.15 K	–	137.39 ± 2.1	–
[3], 307.15 K	–	137.42 ± 2.1	–
[3], 308.15 K	–	137.49 ± 2.1	–
[3], 309.15 K	–	137.53 ± 2.1	–
[3], 310.15 K	–	137.6 ± 2.1	–
[3], 311.15 K	–	137.65 ± 2.1	–
[3], 312.15 K	–	137.71 ± 2.1	–
[3], 313.15 K	–	137.77 ± 2.1	–
